“And” between values parts separate entries of the source, which are not always exact repeats. Identical values can stand only once. Like-named read-outs stand apart in the source and are kept apart here. Where only a bound is given, the exact number is not on record here.

A short description of data set [1]: Dynamic light scattering, H2O 5% EtOH. Type of data set: physicochemical. The note with it: 5.56 mM, 298 K, after annealing. The source says:
The size and stability of those self-associated structures present were confirmed through a combination of dynamic light scattering (DLS) and zeta potential measurements respectively (Table 2). […] Therefore, the presence of the alkyl/aromatic R-groups within the amino acid appended SSA are confirmed to increase higher order self-associated aggregate stability.
Table S9 - The peak maxima and polydispersity indices obtained for 1, 3, 5, 7, 9, and 1:1 enantiomeric mixtures of 3 + 5 and 7 + 9 obtained at 5.56 mM in H2O/5 % EtOH. An annealing process was applied in which the samples were heated to approximately 313 K before being cooled down to a measurement temperature of 298 K. The errors given are the standard error of the average.
Compound Repeat Peak maxima (nm) Polydispersity index

In the next data set the test system is E. Faecalis NCTC 12201. Kind of data set: MIC assay. The settings on record: Enterococcus faecalis, NCTC12201; lowest concentration with no visible growth. Type of data set: cell-based. The method, then:
(§1) Section S3: Biological methods […]
(§2) Preparation of bacterial plates : Sterile TSB agar plates were streaked using the desired bacteria [Staphylococcus aureus (9144, 13616, USA 300 and 1199B ), Enterococcus faecalis (NCTC 775 and 12201 ) and Enterococcus faecium (NCTC 12204)] and incubated at 37 °C […]
(§3) Preparation of inoculum: An initial culture was made up by inoculating TSB (5 mL) with 3 single colonies of the desired bacteria under sterile conditions and incubated at 37 °C overnight. The optical density at 600 nm (OD 600) was adjusted using sterile distilled H 2O (dH2O) to equal ~1 x 10^6 bacteria/mL.
(§4) Preparation of 96 -well microplate : A solution of each compound in H2O/5 % EtOH was made […]
(§5) . The compound solution (200
(§6) […]. The bacterial suspension (100 µL) was dispensed into each well under sterile conditions. The plates were sealed using parafilm and incubated at 37 °C for 20 hours, after which the OD 600 was measured.

The subject of another data set is E. Faecium NCTC 12204. Kind of data set: MIC assay. The note with it: Enterococcus faecium, NCTC12204; lowest concentration with no visible growth. Type of data set: cell-based. The method, then:
as §1, §2, §3, §4, §5, §6

Data set [2] concerns A2780 CisR cisplatin resistant ovarian cancer cells. Kind of data set: GI50 determination, SRB assay. The note with it: read-out: Mean GI50 (μM) A2780 CisR SRB Assays. Type of data set: cell-based, human. The method, then: (§7) GI50 determination assays
(§8) Cell culture: The RPE-1 retinal pigment epithelial, A2780 human ovarian carcinoma, and A2780 CisR cisplatin resistant human ovarian carcinoma cell lines were donated with thanks from the Institute of Cancer Research. The A2780 and A2780 CisR cell lines were cultured in IMDM supplemented with 10 % FBS at 37 °C and 5 % CO2, while the RPE-1 cell line was cultured in a 1:1 mixture of Dulbecco's Modified Eagle Medium and Ham’s F-12 Nutrient Mixture (DMEM/F-12) at 37 °C and 5 % CO2.
(§9) SRB assay: Cells were seeded into 96-well plates at 800 cells per well/cpw (A2780), 1600 cpw (A2780 CisR) or 400 cpw (RPE-1) in cell culture medium and cultured for 48 hours followed by addition of each compound over an eight-point concentration range (each concentration in triplicate). Plates were then cultured for a further 96 hours, after which the cell culture […]
(§10) medium was removed from each well and the cells fixed with addition of 70 µL/well of 10 % (w/v) trichloroacetic acid (TCA) in distilled water followed by incubation for 30 minutes at RT.
(§11) Each plate was then washed with distilled water five times before addition of 70 µL SRB dye (0.4 % (w/v) SRB dye (ThermoFisher Scientific, USA) solubilised in 1 % (v/v) acetic acid/ dH2O) and incubat ed for 30 minutes at RT, followed by washing three times with 1 % (v/v) acetic acid and drying in a 37 °C oven overnight. Once dry, 100 μl of 10 mM Tris -base (ThermoFisher Scientific, USA) was added to each well and plates put on a microplate shaker for 10 minutes at 200 rpm to solubilize the dye. Absorbance values were then read at wavelength 490 nm on a Victor X4 multi-label plate reader (PerkinElmer Life Sciences, USA), data analysed using Microsoft Excel and graphs produced using GraphPad Prism 9.0 and the GI50 value calculated.
(§12) Solutions and compo und preparation: All solvents and starting materials were purchased from known chemical suppliers. Compound stock solutions were prepared in DMSO. Buffer […]
(§13) 500 mM. Buffer B consisted of Na2SO4 (167 mM) and NaOAc (5 mM) with a pH of 5.5 and an ionic strength of 500 mM.
(§14) Vesicle formation: Giant unilamellar Vesicles (GUVS) were prepared through the electro formation method using a Nanion VesiclePrepPro. A solution of 1,2-diphytanoyl-sn-glycero-3-phosphocholine (DPhPC) (10 mM) with 10 % cholesterol in chloroform (20 µL) was deposited onto an ITO coated glass surface (surface coated glass slide) and allowed to evaporate to create a dehydrated thin lipid film. A greased O-ring was then placed around the dehydrated lipid film to create a seal. This volume was then filled with a sucrose solution (275 µL, 200 mM) and then sealed with a second ITO coated glass slide. An AC current (3 V/5 Hz) was then applied. After 2 hrs, the voltage and frequency were reduced in steps over 30 mins to 1.6 V/1 Hz and held for 1 hr before being reduced to 0 V/0 Hz over a further 30 min […]
(§15) Patch clamp measurements: Experiments were performed using a Port-a-Patch system (Nanion Technologies) with borosilicate glass chips that contain an aperture diameter of approximately 1 µm. Buffer A (5 µL) was placed on the underside of the chip over the aperture, The chip was then placed into the port-a-patch system. Buffer A (15 µL) was then added to the top of the chip and 5 µL of the GUV stock solution added. The GUVS were the positioned over the aperture in the chip by application of negative pressure (-30 mbar).
(§16) When a GUV is positioned over the aperture in the chip, it bursts, leaving a planar bilayer as a seal. The negative pressure is then removed, leaving the planar bilayer in place over the aperture. The external buffer A was the exchanged with buffer B, through four simultaneous […]
(§17) buffer exchanges (4 x 15 µL). […]
(§18) = 30 s, to give a final experimental concentration of 0.1 – 1 mM as appropriate. The number of sweeps was set to 1000, the sweep interval to 0.00 s, sample interval to 1.00 ms and the protocol was run for a total of 5 mins. Each experiment was repeated a minimum of three time to ensure reproducibility.
On the technique in general: In SRB staining, fixed cells bind dye roughly in proportion to their protein.

Data set [3] relates to A2780 ovarian cancer cells. Kind of data set: GI50 determination, SRB assay. Type of data set: cell-based, human. The settings on record: for GI50: 96 hours, read-out: Mean GI50 (μM) A2780 SRB Assays. The method, then: as §7, §8, §9, §10, §11, §12, §13, §14, §15, §16, §17, §18
The subject of a further data set is RPE-1 cells. As to the kind of experiment: GI50 determination, SRB assay. The class given is cell-based, human. The settings on record: read-out: Mean GI50 (μM) RPE-1 SRB Assays. The method, then: as §7, §8, §9, §10, §11, §12, §13, §14, §15, §16, §17, §18

Take `CC(C)CC(NC(=O)Nc1ccc(C(F)(F)F)cc1)C(=O)O` (stereo not shown) [SSA 3]: the “dH (nm), DLS intensity distribution peak maxima” value (shortened to “dH (nm)”) in data set [1] (listed as 3) was 265.65 (± 19.29) nm and 266 nm. The MIC in the data set on E. Faecalis NCTC 12201 and in the data set on E. Faecium NCTC 12204 was over 2.78 mM in each case. Besides, the GI50 (in general, the concentration that inhibits growth by half) was 276 µM in data set [2] (Homo sapiens, A2780cisR, 96 h); 171 µM in data set [3] (Homo sapiens, A2780, 96 h); over 500 µM in the data set on RPE-1 cells (Homo sapiens, RPE-1, 96 h).
As for `CC(C)CC(NC(=O)Nc1ccc(C(F)(F)F)cc1)C(=O)O` (stereo not shown) [SSA 5], the “dH (nm)” value in data set [1] (listed as 5) is 174.05 (± 13.00) nm and 174 nm. The GI50 was 498 µM in data set [2] (96 hours), 231 µM in data set [3] and over 375 µM with RPE-1 cells (96 hours).
Regarding `O=C(O)CNC(=O)Nc1ccc(C(F)(F)F)cc1` [SSA 1], the MIC in the data set on E. Faecalis NCTC 12201 and in the data set on E. Faecium NCTC 12204 was over 2.78 mM each time. Moreover, the GI50 in data set [2] (Homo sapiens, A2780cisR, 96 h) came to 367 µM; in data set [3] (Homo sapiens, A2780, 96 h) it was 117 µM; in the data set with RPE-1 cells (Homo sapiens, RPE-1, 96 h), 296 µM.
As to `O=C(Nc1ccc(C(F)(F)F)cc1)N[C@@H](Cc1ccccc1)C(=O)O` [SSA 7], the “dH (nm)” value in data set [1] was 166.62 (± 19.14) nm and 167 nm. Further, the MIC with E. Faecalis NCTC 12201 and in the data set with E. Faecium NCTC 12204 was over 2.78 mM each time. Further, the GI50 is 356 µM in data set [2] (Homo sapiens, A2780cisR, 96 h); 178 µM in data set [3] (Homo sapiens, A2780, 96 h); over 375 µM with RPE-1 cells (Homo sapiens, RPE-1, 96 h).
As for `O=C(Nc1ccc(C(F)(F)F)cc1)N[C@H](Cc1ccccc1)C(=O)O` [SSA 9], the “dH (nm)” value in data set [1] is 180.99 (± 53.12) nm and 181 nm. Moreover, the MIC against E. Faecalis NCTC 12201 and against E. Faecium NCTC 12204 was over 2.78 mM in each case. For the same molecule, the GI50 in data set [2] (Homo sapiens, A2780cisR, 96 h) was 197 µM; in data set [3] (Homo sapiens, A2780, 96 h), 105 µM; with RPE-1 cells (Homo sapiens, RPE-1, 96 h), over 375 µM. The “selectivity for the cancer cells over the RPE-1 cells” value in data set [3] (no impact on RPE-1 cell growth at 350 µM) is “≥ two-fold”.
